From article PMC9095466 (Nature, 2022)
Values joined by “and” are separate entries in the source; they are usually repeats but may differ in a detail not shown here. Identical values can stand only once. Like-named read-outs stand apart in the source and are kept apart here. *1 amine or outer side, *2 acyl side, *3 side chain or, on linkers, in order; H or OH if unused. Where a SMILES comes first, the peptide text is derived from it. Bridges are numbered along the chain shown (N, C = ends). [ ]: non-standard residue; d: D form. The star is where a group is joined. X1 = CC[C@H](C)[C@@H](N[*:1])[C@@H](O)CC(=O)O[C@H](C(=O)[C@H](C)C(=O)[*:2])C(C)C; NMeY = CN[C@@H](Cc1ccc(O)cc1)C(=O)O; dNMeL = CN[C@H](CC(C)C)C(=O)O; Pyruvoyl = CC(=O)C(=O)*

Tests used:
human TMPRSS2 = human TMPRSS2 (Homo sapiens, UniProt O15393); test: cell-based; details: for TMPRSS2 activity (%): Figure 1B, single experiments N1-N3
human TMPRSS2, sequence (O15393 whole entry): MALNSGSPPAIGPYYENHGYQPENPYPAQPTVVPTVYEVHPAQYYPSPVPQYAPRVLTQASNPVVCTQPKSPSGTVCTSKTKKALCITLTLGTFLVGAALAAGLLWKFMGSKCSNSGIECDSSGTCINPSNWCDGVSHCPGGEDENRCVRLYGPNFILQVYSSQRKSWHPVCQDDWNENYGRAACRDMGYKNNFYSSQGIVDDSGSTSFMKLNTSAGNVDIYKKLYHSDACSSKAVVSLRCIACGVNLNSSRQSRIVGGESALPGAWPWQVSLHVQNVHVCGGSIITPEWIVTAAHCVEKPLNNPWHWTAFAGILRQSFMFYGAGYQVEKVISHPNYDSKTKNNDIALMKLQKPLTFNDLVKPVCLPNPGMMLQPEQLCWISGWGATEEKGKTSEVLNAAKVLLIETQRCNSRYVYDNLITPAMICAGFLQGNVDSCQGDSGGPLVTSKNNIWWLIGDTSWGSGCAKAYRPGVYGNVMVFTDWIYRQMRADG

[1] = tested on: SARS-CoV-2 lineage B strain (VIDO); test: microbe, parasite or virus in culture; type: cell-based; details: for Nucleocapsid / dsRNA: Figure 2a, two replicates; for Nucleocapsid: DMSO control about 91-94; for dsRNA: DMSO control about 93-95; for inhibition at 0.1 µM: read-out: inhibition of SARS-CoV-2 infection
Vero E6 cells = test: Cytotoxicity assay (Cell Titer-Glo 2.0) in Vero E6 cells; type: cell-based; details: 24 h, single experiments N1-N4
Experimental: (§1) Calu-3 and Vero E6 cells (2500 or 10,000 cells for samples, 80–20,000 cells for standard curve) were seeded in 96-well plates. Following a 24-h incubation at 37 °C, 5% CO2, cells were washed with D-PBS and compounds added (10 µM) for an additional 24-h incubation. Cellular viability was assessed using Cell Titer-Glo 2.0 Cell Viability Assay (Promega) according to the manufacturer’s instructions. The number of viable cells was extrapolated using the standard curve. Cellular viability in Vero E6 cells was expressed relative (%) to vehicle-treated cells. Data are from four independent experiments (mean ± s.d.).

[2] = as above; type: cell-based; details: African green monkey, % Viability of Vero E6 cells
Experimental: as §1

[3] = tested on: SARS-CoV-2 (USA-WA1/2020, lineage A); test: K18-hACE2 mouse model of SARS-CoV-2, H&E histopathology of lung and brain; details: 8-day regimen
Experimental: For histological examination, mouse lungs and brains were collected directly after euthanasia and placed in 10% formalin for more than 72 h, after which tissues were embedded in paraffin. Tissue sections (4 μm) were analysed after staining with H&E and scored blinded by an anatomic pathologist. For lung, scores were applied based on the percentage of each tissue type (alveolus, vessels and so on) affected using the following criteria: (0) normal; (1) less than 10% affected; (2) 10–25% affected; (3) 26–50% affected; and (4) more than 50% affected[64]. Assessment of lung pathology in K18-hACE2 mice infected with the SARS-CoV-2 B.1.617.2 (Delta) VOC after single-dose treatment was performed on IHC sections counterstained with haematoxylin. For brains, histological scoring was assessed for perivascular inflammation using the most severely affected vessel and the following criteria: (0) no perivascular inflammation; (1) incomplete cuff one cell layer thick; (2) complete cuff one cell layer thick; (3) complete cuff two to three cells thick; and (4) complete cuff four or more cells thick. Necrotic cells in the neuroparenchyma were assessed per 0.237 mm^2 field using the most severely affected area and the following criteria: (0) no necrotic cells; (1) rare individual necrotic cells; (2) fewer than 10 necrotic cells; (3) 11 to 25 necrotic cells; (4) 26 to 50 necrotic cells; and (5) greater than 50 cells.

[4] = tested on: SARS-CoV-2 (USA-WA1/2020, lineage A); test: K18-hACE2 mouse model of SARS-CoV-2, IHC of nucleocapsid with digital image analysis; type: in vivo, K18-hACE2 mice; details: individual mice, 8-day regimen, tissue at death or end-point
Experimental: To detect viral antigen, sections were labelled with anti-SARS-CoV-2 nucleocapsid protein rabbit IgG monoclonal antibody (GeneTex; GTX635679) at a 1:5,000 dilution and processed using a Leica Bond Max automated IHC stainer. Leica Bond Polymer Refine Detection (Leica; DS9800) with DAB was used as the chromogen. Image acquisition was performed using a Roche Ventana DP200 slide scanner. Digital image analysis was performed using QuPath software[65],[66] v.0.2.3. Tissues were annotated to include all available lung tissue or all brain tissue excluding cerebellum, as cerebellar tissue was not available for all mice. Following annotation, automated detection was performed using automated SLIC superpixel segmentation with a DAB mean detection threshold of 0.18892.

[5] = tested on: SARS-CoV-2 (USA-WA1/2020, lineage A); set-up: species or system K18-hACE2 mice; details: mouse, in vivo
SARS-CoV-2 (VIDO) [6] = type: cell-based; set-up: plaque assay titre, Figure 2c: unit not given beside the values; details: for reduction of viral titre (plaque assay): supernatant of infected Calu-3 cells, vs DMSO-treated infected control; for plaque assay titre, Figure 2c: replicate columns
[7] = tested on: SARS-CoV-2 (USA-WA1/2020, lineage A); type: in vivo, K18-hACE2 mice; details: Figure S8 C, tissue plaque assay, individual animals
SARS-CoV-2 (VIDO) [8] = test: microbe, parasite or virus in culture; type: cell-based; details: Severe acute respiratory syndrome coronavirus 2; colonoids pretreated 3 h with 100 nM, infected 3 days, vs DMSO-treated; read-out: inhibition of SARS-CoV-2 infection in colonoids
SARS-CoV-2 = tested on: SARS-CoV-2; set-up: method as in PMID 33495306; details: pneumocyte-like cells; read-out: EC50 against SARS-CoV-2 infection; cited from earlier work
[9] = Severe acute respiratory syndrome coronavirus 2, Calu-3
[10] = individual mice, tissue at death or end-point

CC(NC(=O)C(CCC(N)=O)NC(=O)C(N)CCCNC(=N)N)C(=O)NC(CCCNC(=N)N)C(=O)c1nc2ccccc2s1 (stereo not shown) [Compound N-0100]
inhibition of TMPRSS2 activity (reduction of substrate proteolysis) (human TMPRSS2; 10 nM compound, 24 h, vs untreated/vehicle TMPRSS2-expressing Vero E6 cells): did not inhibit
TMPRSS2 activity (%) (human TMPRSS2): 113.572% and 108.611% and 101.926%
Nucleocapsid [1]: 59.9825 and 100
dsRNA [1]: 53.1735 and 98.3497
inhibition at 0.1 µM [1, 9]: < 25%
% Viability of Vero E6 cells (Vero E6 cells; 10 μM compound, relative to vehicle (DMSO 0.01%), 10 µM): 122.116% and 96.727% and 87.5998% and 134.594%

N=C(N)NCCCCC(=O)NC(CCC(N)=O)C(=O)NC(CC1CCCCC1)C(=O)NC(CCCNC(=N)N)C(=O)c1nc2ccccc2s1 (stereo not shown) [Compound N-0678]
TMPRSS2 activity (%) (human TMPRSS2): 91.6478% and 104.935% and 97.8749%
inhibition at 0.01 µM (human TMPRSS2; Vero C1008, 10 nM compound, 24 h, vs untreated/vehicle TMPRSS2-expressing Vero E6 cells, read-out: inhibition of TMPRSS2 activity (reduction of substrate proteolysis)): 5%
Nucleocapsid [1]: 70.7269 and 93.9071
dsRNA [1]: 64.9837 and 89.8579
inhibition at 0.1 µM [1, 9]: < 23%
viability at 24 h, 10 µM [2]: 113%

CS(=O)(=O)NC(CCC(N)=O)C(=O)NC(Cc1ccccc1)C(=O)NC(CCCNC(=N)N)C(O)c1nc2ccccc2s1 (stereo not shown) [N-0385(OH), Ms-QFR-Kbt(OH)]
reduction in TMPRSS2 activity (human TMPRSS2; cells treated with up to 10 μM): no significant reduction
inhibition of SARS-CoV-2 infection in dose-response ([1]; Calu-3 cells, concentrations up to 1 μM): substantial inhibition was not observed
Nucleocapsid [1]: 67.4057 and 91.7182
dsRNA [1]: 60.8663 and 93.4144
EC50 ([1]; Severe acute respiratory syndrome coronavirus 2, Calu-3, read-out: SARS-CoV-2 VIDO Nucleocapsid EC50 ± SE): > 1000 nM
inhibition at 0.1 µM [1, 9]: < 23%
Figure 2b dose-response, Mean ([1]; log [C] (nM) 0.20412): 76.2535
Figure 2b dose-response, Mean ([1]; log [C] (nM) 0.90309): 92.6293
Figure 2b dose-response, Mean ([1]; log [C] (nM) 1.60206): 68.5403
Figure 2b dose-response, Mean ([1]; log [C] (nM) 2.30103): 90.4217
Figure 2b dose-response, Mean ([1]; log [C] (nM) 3): 72.2184
Figure 2b dose-response, Mean ([1]; log [C] (nM) -0.49485): 87.0011
Figure 2b dose-response, Mean ([1]; log [C] (nM) -1.19382): 84.82
Brain lesions (H&E) ([3]; N-0385: surviving mice, day 14): reduced
Perivascular infiltrates in CNS score ([3]; individual mice, most severely affected vessel): 0 and 2 and 1
Alveolar cells score [3, 10]: 0 and 1 ((1) <10% affected) and 2 ((2) 10–25% affected)
Alveolar edema score [3, 10]: 0 and 1 ((1) <10% affected) and 2 ((2) 10–25% affected)
Alveolar fibrin score [3, 10]: 0 and 1 ((1) <10% affected) and 2 ((2) 10–25% affected)
Fibrosis score [3, 10]: 0
Interstitial infiltrates in lung score [3, 10]: 0 and 1 ((1) <10% affected) and 3 ((3) 26–50% affected)
Lymphoid hyperplasia score [3, 10]: 0
Perivascular infiltrate in lung score [3, 10]: 1 ((1) <10% affected) and 3 ((3) 26–50% affected) and 0
Type II pneumocyte hyperplasia score [3, 10]: 0 and 1 ((1) <10% affected) and 3 ((3) 26–50% affected)
Brain No. Positive (IHC detections) [4]: 205622 and 308647 and 423604 and 84 and 143563 and 207074 and 97743 and 210 and 4043 and 310256
Brain No. Positive per mm^2 [4]: 4555.9 per mm^2 and 7896.3 per mm^2 and 7494 per mm^2 and 2.578 per mm^2 and 3909.6 per mm^2 and 5209.1 per mm^2 and 2144.6 per mm^2 and 10.67 per mm^2 and 137.97 per mm^2 and 6010.9 per mm^2
Brain Positive % [4]: 45.15% and 78.61% and 74.5% and 0.0256% and 38.77% and 51.89% and 21.4% and 0.1052% and 1.361% and 59.5%
Lung No. Positive (IHC detections) [4]: 39230 and 61582 and 572 and 191 and 315 and 37366 and 98 and 384 and 178
Lung No. Positive per mm^2 [4]: 2703.8 per mm^2 and 1622.2 per mm^2 and 26.11 per mm^2 and 8.074 per mm^2 and 15.79 per mm^2 and 10.94 per mm^2 and 1638.9 per mm^2 and 3.505 per mm^2 and 17.97 per mm^2 and 6.38 per mm^2
Lung Positive % [4]: 26.59% and 15.97% and 0.2589% and 0.0798% and 0.1558% and 0.1086% and 16.31% and 0.0348% and 0.1784% and 0.063%
average weight loss at 6 dpi [5]: 12%
survival to the end-point (14 dpi) [5]: 10%
weight loss at the study end-point [5]: 15%
reduction of viral titre (plaque assay) (SARS-CoV-2 (VIDO) [6]; 40 nM): did not induce reduction
plaque assay titre, Figure 2c (SARS-CoV-2 (VIDO) [6]; 40 nM): 240000 and 1067000 and 627000 and 715000 and 1050000 and 440000 and 310000 (2×) and 190000 and 70000 and 400000 and 350000 and 264000 and 242000
reduction of viral titre (plaque assay) (SARS-CoV-2 (VIDO) [6]; 200 nM): did not induce reduction
plaque assay titre, Figure 2c (SARS-CoV-2 (VIDO) [6]; 200 nM): 200000 and 150000 (2×) and 30000 and 500000 (4×) and 780000 and 594000 and 286000 and 190000 and 950000
PFU/g ([7]; Females): 15000000 PFU/g and 1441176 PFU/g and 8676471 PFU/g and 0 PFU/g and 2014706 PFU/g
PFU/mL ([7]; Females): 3000000 PFU/mL and 288235 PFU/mL and 1735294 PFU/mL and 0 PFU/mL and 402941 PFU/mL
PFU/g ([7]; Males): 0 PFU/g and 9852941 PFU/g and 720588 PFU/g
PFU/mL ([7]; Males): 0 PFU/mL and 1970588 PFU/mL and 144118 PFU/mL
inhibition at 0.1 µM (SARS-CoV-2 (VIDO) [8]): < 20%

CC[C@H](C)[C@H]1NC(=O)[C@@H](NC(=O)[C@@H](CC(C)C)N(C)C(=O)[C@@H]2CCCN2C(=O)C(C)=O)[C@@H](C)OC(=O)[C@H](Cc2ccc(OC)cc2)N(C)C(=O)[C@@H]2CCCN2C(=O)[C@H](CC(C)C)NC(=O)[C@@H](C)C(=O)[C@H](C(C)C)OC(=O)C[C@@H]1O [Plitidepsin] (Pyruvoyl-P[dNMeL]T[X1]LP[NMeY](Me); ester 3-C)
EC50 (SARS-CoV-2): 1.62 nM

Triton X-100 [reference compound]
% Viability of Vero E6 cells (Vero E6 cells; Triton X-100 0.01% toxicity control): 0.08115% and 6.372% and 5.985% and 2.918%
